Series [1] in a line: Analog solubility in TSAG3 gel vehicle (minus Carbopol). The series is classed as physicochemical. To be noted: for Supernatant concentration Mean (N = 2-3) mg/g at RT after 4 days equilibration / Visual observation of sample after 4 days: TSAG3 gel vehicle minus 1% w/w Carbopol, 30 mg/g added, 20-23° C. The method, then: In order to assess the compatibility with the modified TSAG3 gel formulation, several analogs were saturated in the gel components at room temperature (20-23° C.). The method used was as follows: Each analog at the equivalent of 30 mg/g was added to 500 microliters of the gel vehicle (minus the 1% w/w Carbopol as this made the gel too viscous) and allowed to equilibrate using a gently rotating, rotisserie sample holder that was allowed to come to equilibrium over 4 days. The samples were visually observed, filtered and diluted for analysis via HPLC in a concentrations range predetermined to be in a linear range for analyte detection. It is believed that Carbopol makes little difference to the equilibrium solubility at the 1% w/w level but may possibly prevent precipitation of super−saturated solutions of drug initially over 24-48 hours which is a further reason for taking it out to better assess the drug solubility in the remainder of the formulation.

Series [2] concerns HSC-1 human squamous carcinoma cells. Put plainly: Cytotoxicity in human squamous carcinoma cells (CellTiter-Glo). The following applies: HSC-1, 72 h, 1% FBS, representative experiment, read-out: EC50 (cell viability). The series is classed as cell-based. The method, then: The human skin squamous carcinoma line (HSC) (Japanese Collection of Research Bioresources Cell Bank (JCRB)) was cultured in Dulbecco's minimal essential media (DMEM) containing 20% fetal bovine serum (FBS), (Thermofisher, Waltham, MA). Cells were plated at a density of 5,000 cells per well into a 96-well plate and allowed to attach for 24 h in a 37° C. humidified incubator with a 5% CO2 atmosphere. Media was replaced with that containing test agents or vehicle (0.1% dimethylsulphoxide) in 1% FBS and cells incubated for a further 72 h. Cell viability was assessed using CellTiter-Glo® (Promega). Non-linear regression analysis was performed using GraphPad PRISM®.
On the technique in general: ATP-based viability assays read luminescence as a measure of living cells.

Series [3] in a line: Cytotoxicity in mouse melanoma cells (CellTiter-Glo). To be noted: mouse, B16F10 mouse melanoma cells; B16F10, 48 h, representative experiment. The series is classed as cell-based. As to the method: (§1) Mouse melanoma cells (B16F10) (American Type Culture Collection (ATCC), Manassas, VA) were cultured in Dulbecco's minimal essential media (DMEM) containing 10% fetal bovine serum, (Thermofisher, Waltham, MA). Cells were plated at a density of 5,000 cells per well into a 96-well plate and allowed to attach for 24 h in a 37° C. humidified incubator with a 5% CO2 atmosphere. Media was replaced with that containing test agents or vehicle (0.1% dimethylsulphoxide) and cells incubated for a further 48 h. Cell viability was assessed using CellTiter-Glo® (Promega).
(§2) An oleate-bovine serum albumin (BSA) conjugate was prepared by dissolving sodium oleate to 100 mM in methanol. The oleate was diluted to 20 mM with PBS and further diluted 1:1 with 30% fatty acid free albumin and incubated overnight at 37° C. The solution was sterile filtered prior to treating cells. The BSA control was prepared in the same manner, without the fatty acid. […] Non-linear regression analysis was performed using GraphPad PRISM®.

Series [4] deals with Mouse melanoma cells (B16F10). The series is described as above. The series is classed as cell-based. The following applies: for effect of oleic acid on cytotoxicity: B16F10, oleic acid at 25 μM in the media. The method, then: as §1, §2
Series [5] concerns B16F10 cells. Put plainly: Melanin production in B16F10 melanoma cells. The series is classed as cell-based, mouse. The following applies: 10 nM, 48 h. The method, then: B16F10 cells were plated at 150,000 cells per well into a 6-well plate and allowed to attach for 24 h in a 37° C. humidified incubator with a 5% CO2 atmosphere. Media was replaced with that containing test agents or vehicle (0.1% DMSO) and cells incubated for a further 48 h. Wells were washed once with PBS and cells removed by trypsinization and transferred to eppendorf tubes. Tubes were centrifuged at 1000 g for 10 minutes and the cell pellet resuspended in 0.5 mls PBS. Since compound A and analogs caused a reduction in cell viability the relative cell number per well was determined by taking an aliquot of the cell suspension in PBS and using CellTiter Glo® to determine the relative number of viable cells (Figure XX5). The PBS/cell suspension was centrifuged at 1000 g for 10 mins and the cell pellet resuspended in 1N NaOH/10% DMSO (v/v) and the tubes heated in a dry heating block at 80° C. with occasional vortexing to mix. In parallel a standard curve of melanin was prepared in 1N NaOH/10% DMSO using Sepia melanin (Sigma, St. Louis, MO) and standards also heated at 80° C. for 1 h. Samples and standards were centrifuged at 3000 g for 5 minutes and aliquots of the supernatant transferred to a 96-well plate for determination of melanin using Abs 475 nm. Melanin cellular content was interpolated from a standard curve and corrected based on the relative cell number in the sample.

Series [6] concerns mouse 3T3 L1 preadipocytes. Briefly: Viability of mouse 3T3 L1 preadipocytes (Cell Titer Blue). Type of series: cell-based. The following applies: 10 μM. As to the method:
Viability of mouse 3T3 L1 preadipocytes (ATCC, Mannassas, VA) cultured in a 96-well plate following treatment with 10 μM Compound A and analogs Compounds B, D, E, G and H was assessed using Cell Titer Blue (Promega (Madison, WI)) according to manufacturer's instructions. […] To evaluate how the efficacy of Compound A in reducing lipid accumulation altered with substrate availability, studies were performed in differentiating mouse 3T3-L1 pre-adipocytes using charcoal stripped serum to reduce substrate concentration and also with added exogenous palmitate as the substrate. 3T3-L1 cells were plated at 6000 cells/cm^2 and cultured until confluence at 37° C. in a humidified incubator in 95% air/5% CO2. Two days post-confluence pre-adipocyte differentiation was initiated using adipocyte differentiation medium containing DMEM with high glucose, 10% fetal bovine serum, insulin (1.7 μM), dexamethasone (1 μM), IBMX (0.5 mM), PPARy agonist Rosiglitazone, (1 μM) with penicillin and streptomycin with 10 nM compound A or vehicle (0.1% DMSO). Seventy two hours following the initiation of differentiation, media was replaced with adipocyte maintenance media containing DMEM with high glucose and insulin (1.7 μM) with 10 nM compound A or vehicle (0.1% DMSO) (FIG. 12). Serum composed of 100% FCS or that containing 20, 40, 60, 80 or 100% charcoal stripped serum (cFCS). For experiments where sodium palmitate was added the serum comprised of a 90:10 ratio of FCS:cFCS with 5.0 or 50 μM palmitate/bovine-serum albumin (BSA) complex. Sodium palmitate was conjugated to BSA for use in experiments and was prepared by dissolving to 100 mM in 200 proof ethanol. The palmitate was diluted to 20 mM with D-PBS. The palmitate was then further diluted 1:1 with 30% fatty acid free albumin and incubated overnight at 37° C. The solution was sterile filtered with a 0.22 micron syringe filter prior to treating cells. The BSA control was prepared in the same manner, without the fatty acid. For the studies in which palmitate was added the media additionally contained palmitate/BSA complex at the same concentration as that used during the differentiation stage. Following a further forty-eight hours or ninety-six hours of incubation (Day 6 or Day 8 respectively) the media was removed, wells rinsed with PBS, and 200 μL PBS was added. Five microliters of AdipoRed™ reagent was added to each well, mixed, and allowed to stand at room temperature for 10 mins. Triglyceride was quantitated in a fluorimeter (i3 SpectraMax, Molecular Devices) using ? ex 530 nm and ? em 590 nm to determine relative fluorescent units (RFU). Percent inhibition of triglyceride accumulation in Compound A treated 3T3-L1 adipocytes compared to those treated with vehicle under each condition was calculated by using the formula; % Triglyceride Compound A treated adipocytes=100*(RFU Compound A treated adipocytes/RFU vehicle treated adipocytes).
For orientation: Alamar Blue is a resazurin reagent that responds to reducing activity.

Series [7] relates to Human subcutaneous pre-adipocytes. Briefly: Lipid accumulation in differentiating primary human adipocytes (AdipoRed). The series is classed as cell-based. To be noted: Adipocyte, 144 h, six days, read-out: IC50, reduction in lipid accumulation. As to the method:
Human subcutaneous pre-adipocytes (Zenbio (RTP, NC, U.S.A.)) were received pre-plated in white-walled 96-well plates. A schematic description of the protocol used for examining the effects of Compound A on lipid accumulation in differentiating human adipocytes is shown in FIG. 9. Upon arrival of cells (Day 1) 150 μL media in the wells was replaced with adipocyte differentiation media (Zenbio (RTP, NC, U.S.A.)). The following day media was replaced as described for Day 1. Media was subsequently replaced as described every two to three days. On Day 6, 150 μL of the adipocyte differentiation media was replaced with vehicle (0.1% DMSO), or the SCD1 inhibitors at the concentrations indicated. […] Cytotoxicity following incubation of adipocytes with Compound A was determined in separate wells, not used for Adipored™ staining, and was measured using CellTiter-Glo® (Promega (Madison, WI)) according to the manufacturer's instructions. Following a 10 min room temperature incubation the luminescence measured as relative light units (RLU) was determined in a luminescent plate reader. For adipocytes treated with concentrations of 1.2-100 nM Compound A for 6 days, cell viability as determined by RLU following CellTiter-Glo® remained greater than 75% of the value obtained with vehicle-treated adipocytes. […]

On to `O=C(COc1ccc(CO)cc1)N1CC[C@H](Oc2ccccc2OC(F)(F)F)C1` [Compound G], for which, in series [1], the “Supernatant concentration Mean (N = 2-3) mg/g at RT after 4 days equilibration” value (“Supernatant concentration Mean” for short) was determined as 28.78 mg/g and the “Visual observation of sample after 4 days” value (“Visual observation of sample” for short) is on record as “Clear solution”. Moreover, in series [2], the EC50 is 9.2 nM. Further, in series [3], the EC50 at 48 h came to 4.3 nM. Further, in series [4], the “effect of oleic acid on cytotoxicity” value is reported as “prevented the cytotoxic effect”. Also, in series [5], the melanin content entry was “increase in melanin”. Besides, in series [6], the “cell viability compared to vehicle treated cells” value is on record as “No loss in cell viability”. Also, the half-maximal inhibitory concentration (IC50) in series [7] came out at 24.2 nM.

On to `O=C(COc1ccc(CO)cc1)N1CC[C@H](Oc2ccccc2)C1` [Compound B], for which, in series [1], the “Supernatant concentration Mean” value stood at 28.46 mg/g and the “Visual observation of sample” value is reported as “Clear solution”. Further, the “cell viability compared to vehicle treated cells” value in series [6] was “No loss in cell viability”.

With `O=C(COc1ccc(CO)cc1)N1CC[C@H](Oc2cccc(C(F)(F)F)c2)C1` [Compound D], in series [1], the “Supernatant concentration Mean” value worked out at 28.35 mg/g and the “Visual observation of sample” value was “Clear solution”. Besides, the “cell viability compared to vehicle treated cells” value in series [6] is on record as “No loss in cell viability”.

With `O=C(COc1ccc(CO)cc1)N1CC[C@H](Oc2ccc(C(F)(F)F)cc2)C1` [Compound E], in series [1], the “Supernatant concentration Mean” value is listed as 23.18 mg/g and the “Visual observation of sample” value was “Visible precipitate”. In series [1] (TSAG3 gel vehicle minus Carbopol), the “solubility as % of Compound A solubility” value was “about 77%”. In addition, the “reduction of cell viability” value in series [4] (B16F10, 48 h, up to 100 nM) is listed as “did not reduce the viability”. Further, the “cell viability compared to vehicle treated cells” value in series [6] is recorded as “No loss in cell viability”.

For `Cc1ccccc1O[C@H]1CCN(C(=O)COc2ccc(CO)cc2)C1` [Compound H], in series [1], the “Supernatant concentration Mean” value came to 27.89 mg/g and the “Visual observation of sample” value is given as “Clear solution”. Besides, the response in series [3] was half-maximal at 46 nM (EC50 at 48 h). Further, the “effect of oleic acid on cytotoxicity” value in series [4] is reported as “prevented the cytotoxic effect”. The “cell viability compared to vehicle treated cells” value in series [6] is listed as “No loss in cell viability”. Also, in series [7], the half-maximal inhibitory concentration (IC50) stood at 56 nM.

By EC50 is commonly meant the midpoint of the concentration-response curve. As a reminder, the IC50 is the midpoint of a concentration-inhibition curve.

The values are drawn from patent US20240307388A1, “FORMULATIONS FOR SUBSTITUTED 3-PYRROLIDINES, COMPOSITIONS CONTAINING, AND USES OF SAME” (LIPIDIO PHARMACEUTICALS, INC., priority 2016, published 2024).
